Entries after “also recorded” stand apart in the source; their conditions may differ. Where no end group is shown, it is not given here.
Tests used:
[1] = target: T1, HLA-A*0201/peptide complexes (Homo sapiens, UniProt P04439, D140Y/D185E/D98H/E176V/E277Q/G131W/G231S/I119V/I121R/I166T/I218V/L300P/L318F/N151K/N90K/P208A/P217A/Q86G/Q94H/R138H/R169H/T345S); experiment: Stability of peptide/HLA-A*0201 complexes on T2 cells (DC50); type: binding
T1 construct: prevent the expression at their surface of newly synthesized HLA-A*0201 molecules; endogenous in cells; host or cells: human T2 cells (TAP-deficient)
Experimental: (§1) The affinity of the selected peptides for HLA-A*0201 was defined by two parameters: the relative affinity (RA); which reflects the ability of the peptides to bind to HLA-A*0201, and the rate of dissociation of the HLA-A*0201/peptide complexes (DC50), which reflects their stability. The peptides with high affinity (RA<5 and DC50>2 hours) are potentially immunogenic, unlike the peptides with low affinity (RA>5 and DC50<2 hours).
T2 cells (10^6/ml) are incubated overnight at 37° C. with 100 μM of each test peptide in serum-free RPMI 1640 medium supplemented with 100 ng/ml of human β2-microglobulin. Next, they are washed four times in order to remove the free peptides, incubated with Brefeldin A (SIGMA; 10 μg/ml) for one hour in order to prevent the expression at their surface of newly synthesized HLA-A*0201 molecules, washed and incubated at 37° C. for 0, 2, 4, 6 or 8 hours. For each incubation time, the cells are then labeled, as indicated above, with the BB7.2 antibody, and analyzed by flow cytometry in order to evaluate the amount of peptide/HLA-A*0201 complex present at their surface. This amount is evaluated by means of the formula: (mean fluorescence of the T2 cells preincubated with the peptide−mean fluorescence of the T2 cells treated under similar conditions in the absence of peptide). […]

HLA-A*0201 = target: T2, HLA-A*0201 (Homo sapiens, UniProt P04439, D140Y/D185E/D98H/E176V/E277Q/G131W/G231S/I119V/I121R/I166T/I218V/L300P/L318F/N151K/N90K/P208A/P217A/Q86G/Q94H/R138H/R169H/T345S); experiment: Relative affinity (RA) of peptides for HLA-A*0201 on T2 cells, flow cytometry with BB7.2; type: binding; conditions: low affinity = RA>5 and DC50<2 hours
T2 construct: prevent the expression at their surface of newly synthesized HLA-A*0201 molecules; endogenous in cells; host or cells: human T2 cells (TAP-deficient)
Experimental: as §1
Human T2 cells (FIRAT et al., Eur. J. Immunol., 29, 3112, 1999) (3×10^5 cells/ml), which are deficient in TAP transporters, are incubated at 37° C. for 16 hours with various concentrations (100 μM, 10 μM, 1 μM, 0.1 μM) of each test peptide in serum-free RPMI 1640 medium supplemented with 100 ng/ml of human β2-microglobulin. Next, they are washed twice and labeled with the monoclonal antibody BB7.2 (PARHAM et al., Hum. Immunol., 3, 4, 277-299, 1981) which is specific for the HLA-A*0201 molecule, and then with a goat anti-mouse Ig antibody coupled to fluorescein isothiocyanate (FITC).
The cells are then analyzed by flow cytometry. For each concentration of peptide, the specific HLA-A*0201 fluorescence is calculated as a percentage of the fluorescence obtained with 100 μM of a reference peptide (HIVpol 589; […] (SEQ ID No: 1)). The relative affinity (RA) is defined as the ratio of the concentration of each peptide that induces 20% of the fluorescence obtained with 100 μM of the reference peptide, to the concentration of the reference peptide that induces 20% of the fluorescence obtained with 100 μM of said reference peptide. The lower the relative affinity, the stronger the binding of the peptide to HLA-A*0201. The mean RA for each peptide is determined from at least three independent experiments. In all the experiments, 20% of the maximum fluorescence was obtained for 1 to 3 μM of the reference peptide.
The relative affinity (RA) of the selected variant peptides for HLA-A*0201 was measured as described in example 1.

HHD transgenic mice = experiment: Induction of specific CTLs in HHD transgenic mice by immunization with variant MAGE-A peptides; 51Cr cytotoxicity on peptide-loaded RMAS-HHD targets; type: in vivo; conditions: for CTL response generated by immunization with the variant peptide: HHD mice, 100 μg s.c. in Freund's incomplete adjuvant, RMAS-HHD targets, effector/target 40/1
Experimental: The immunogenicity of the variant peptides p174Y1V10, p262L2 and p248V9 was evaluated by generation of CTLs on HHD transgenic mice (PASCOLO et al., J. Exp. Med., 185, 2043, 1997). These mice are β2m−/−, D^b−/− and express an HLA-A*0201 single chain made up of the α1 and α2 domains of HLA-A*0201 and the α3 and intracellular domains of D^b, linked via its N-terminal to the C-terminal of human β2-microglobulin, via a peptide of 15 amino acids.
The HHD mice are given a subcutaneous injection at the base of the tail with 100 μg of each variant peptide to be tested, emulsified in Freund's incomplete adjuvant, in the presence of 140 μg of a T-helper epitope derived from the HBV “core” antigen (128-140, sequence […]).
After 11 days, spleen cells taken from the mice (5×10^7 cells in 10 ml) are stimulated in vitro with the test peptide (10 μM). On the 6th day of culture, the populations which respond are tested in order to determine a specific cytotoxicity. The cells which respond are restimulated in vitro at one-week intervals with 2×10^7 irradiated (3000 rads) HHD spleen cells and 1 to 0.1 μM of peptide in the presence of 50 IU/ml of recombinant IL2 (Proleukin, Chiron Corp).
Cytotoxicity assays are carried out 6 days after the final stimulation.
RMAS-HHD cells are used as targets to study the cytotoxicity. The cells are obtained by transfection of murine RMAS cells with the HHD construct as described by PASCOLO et al. (J. Exp. Med., 185, 2043, 1997).
These target cells are labeled with 100 μCi of ^51Cr for 90 minutes, and then washed three times and plated out in round-bottomed 96-well plates (3×10^3 cells/well in 100 μl of RPMI 1640+3% of fetal calf serum). They are loaded with various concentrations of test peptide (variant, native peptide, or irrelevant control peptide), at 37° C. for 90 minutes.
Next, 100 μl of the effector cells (effector cell/target cell ratio=40/1) are added to the wells and the plates are incubated at 37° C. for 4 hours. After incubation, 100 μl of supernatant are collected and the radioactivity is measured in a γ-counter.
The percentage of specific lysis is calculated by means of the formula: [(experimental ^51Cr release−spontaneous ^51Cr release)/(maximum ^51Cr release−spontaneous ^51Cr release)]×100. In all the experiments, the spontaneous release is less than 20% of the maximum release induced with 3N HCl.

[2] = tested on: COS-7 cells cotransfected with HHD construct and MAGE-A cDNA; experiment: Stimulation of CTL248 line (induced with p248V9) with transfected COS-7 cells expressing MAGE-A antigens, TNF-α secretion; type: cell-based, monkey
Experimental: A CTL line called CTL248 was established from the spleen cells of an HDD mouse immunized with the peptide p248V9, by repeated stimulation in vitro with decreasing concentrations of p248G9 (10 μM-1 μM). This line is maintained in culture in the presence of 1 μM of the peptide p248G9.
The cells of the CTL248 line are stimulated, for each of the MAGE-A1, -A2, -A3, -A4, -A6, -A10 and -A12 antigens, with monkey cos-7 cells cotransfected with the HAD construct (PASCOLO et al., mentioned above) and a plasmid containing the cDNA for said antigen. By way of negative controls, COS-7 cells transfected either with the HHD construct alone or with the cDNA for the MAGE-A antigen concerned are used. The stimulation of the CTLs is evaluated by measuring their secretion of TNF-α. […]
After incubation for 6 hours, the supernatant is removed and brought into contact with WEHI164 clone 13 mouse fibrosarcoma cells (3×10^4 per well), which are characterized by a high sensitivity to TNF-α-induced apoptosis. In order to quantify the amount of TNF in the culture supernatants, a standard range of TNF-α (concentrations of 0 to 10^4 pg/ml) is used in parallel. After incubation for 16 hours at 37° C., the viability of the WEHI-164 clone 13 cells is determined by means of an MTT colorimetric assay (SIGMA) (ESPEVIK and NISSEN MEYER, J. Immunol. Methods, 95, 99, 1986).

[3] = tested on: HLA-A*0201 human tumor cells expressing MAGE-A antigens (M44, M113, OBR); experiment: Stimulation of CTL248 line with HLA-A*0201 human tumor cells expressing MAGE-A antigens, TNF-α secretion; type: cell-based
Experimental: The following HLA-A*0201 tumor lines were used: • lines expressing at least one MAGE-A antigen: M44 and M113 (melanoma); OBR (bladder cancer); • lines not expressing MAGE-A antigens: MCF-7 (breast cancer) and Caco-2 (colon cancer).
The CTL248 line was stimulated with each of the tumor lines mentioned above.
The stimulation is evaluated by detecting the secretion of TNF-α as described above.
In order to confirm that the tumor cell recognition is indeed HLA-A*0201-restricted, the CTL248 cells were stimulated with M44 cells preincubated for one hour with an anti-HLA-A*0201 monoclonal antibody (BB7.2) or with an irrelevant antibody (anti-CD19), and the production of TNFα was measured as described above.

[4] = tested on: CD8+ cells from normal donors; experiment: Induction of specific human CTLs in vitro from PBMCs of normal donors with p248V9, intracellular IFNγ production; type: cell-based
Experimental: The ability of p248V9 to induce CTLs in vitro using peripheral blood mononuclear cells (PBMCs) from normal donors was tested as follows.
The PBMCs are obtained, from blood samples taken by leukocytapheresis on normal donors, after centrifugation at 2000 rpm for 20 min on a Ficoll/Hypaque (Amersham) gradient. After 3 washes in 0.9% NaCl, they are resuspended in complete medium (RPMI 1640 supplemented with 10% of heat-inactivated human AB serum, 40 μg/ml of gentamicin (Panpharma) and […] of L-glutamine (Gibco)), and incubated at 37° C. for 2 hours. After incubation, the non-adherent cells are removed. The adherent cells are differentiated into dendritic cells by culturing in a Teflon bag in a proportion of 3×10^6 cells/ml in complete medium supplemented with 500 IU/ml of GM-CSF (R & D Systems) and 500 IU/ml of IL-4 (R & D Systems). On the seventh day, maturing agents (100 ng/ml of polyI:C and 2 μg/ml of anti-CD40 antibody) are added to the culture. After 24 hours, the mature dendritic cells are loaded with the peptide p248V9 by incubation for 2 hours with 10 μM of peptide in the presence of 5 μg/ml of β2-microglobulin, and then irradiated at 3500 rads; they are then washed in order to remove the free peptide. CD8+ cells are isolated from the non-adherent cells by means of microbeads coupled to an anti-CD8 antibody (Miltenyi Biotec).
2×10^5 CD8+ cells are stimulated with 2×10^4 dendritic cells loaded with the peptide, in complete medium supplemented with 1000 IU/ml of IL-6 and 5 IU/ml of IL-12 in a final volume of 100 μl/well in a 96-well plate. From the seventh day, the cultures are stimulated in vitro each week with the dendritic cells loaded with the peptide, in the presence of 20 IU/ml of IL-2 and 10 ng/ml of IL-7. After the third restimulation, the CD8+ cells are collected and stimulated with EBV-transformed HLA-A*0201 allogenic B cells, in a 1/2 ratio, in the presence of 10 μM of peptide, for 16 hours.
The IFNγ-producing CD8+ cells are purified using a commercial kit (IFNγ secretion assay-cell enrichment and detection kit, Miltenyi Biotech). The cells thus purified are cultured for one week in complete medium supplemented with 20 IU/ml of IL-2 and 10 ng/ml of IL-7.
The response of these CD8+ cells to T2 cells loaded with one of the peptides p248V9, p248G9 or p248D9, or with a irrelevant peptide (HIVgag76), or to HLA-A*0201+MAGE-A+ tumor cells (M44 and M113) or HLA-A*0201+MAGE-A^− tumor cells (Caco-2), is evaluated by assaying the intracellular IFNγ production.
The CD8+ cells are incubated with the cells of the tumor line tested, in the presence of 20 μg/ml of Brefeldine-A (Sigma). […]
The cells are then analyzed by flow cytometry (FACSCalibur™ (Becton Dickinson) and CellQuest™ software).

stability of the complex formed with HLA-A*0201 (in words) [1] | Sequence | DC50 (time required for loss of 50% of HLA-A*0201/peptide complexes) ([1]; T2 cells loaded with 100 μM peptide, 37° C., 0-8 hours) [h] | affinity for HLA-A*0201 (in words) (HLA-A*0201) | recognition of RMAS-HHD targets loaded with the native peptide by CTLs induced with the corresponding variant (HHD transgenic mice; native peptide loaded on targets) | recognition of naturally processed MAGE-A epitope by CTLs induced with the peptide (COS-7 transfectants) [2] | CTL response generated by immunization with the variant peptide (HHD transgenic mice) | recognition of naturally processed MAGE-A epitope by CTLs induced with the peptide (HLA-A*0201 human tumor lines) [3] | induction of human CTLs by the peptide ([4]; PBMCs from normal donors, peptide-loaded dendritic cells, intracellular IFNγ) | response of p248V9-induced human CD8+ cells to T2 cells loaded with the peptide ([4]; intracellular IFNγ production)
– | YEFLWGPRA (listed as Homo sapiens) [p262] | <2 | low affinity | not | – | – | – | – | –
– | YLEYRQVPV (not fully specified) [p248V9] | – | – | – | recognize a naturally processed epitope common to the MAGE-A1, -A2, -A3, -A4, -A6, -A10 and -A12 antigens | induces a CTL response directed not only against this variant but also against the two native peptides p248G9 and p248D9; also recorded: generates CTLs which kill the RMAS-HHD targets loaded with the variant peptide, or with the corresponding native peptide | recognize a naturally processed epitope common to the MAGE-A1, -A2, -A3, -A4, -A6, -A10 and -A12 antigens | induces human CTLs capable of also recognizing the corresponding native peptides, and capable of recognizing tumor cells expressing varied MAGE-A antigens | a response of the CD8+ cells
appears to be insufficient | YLGLSYDGLV (not fully specified) [p174Y1V10] | – | – | – | – | not capable of generating a CTL response | – | – | –
